For one series, the target named is T1, PPH-5 (Caenorhabditis elegans, UniProt Q9NES8).
T1 construct: made in house
T1 sequence (Q9NES8 1-496): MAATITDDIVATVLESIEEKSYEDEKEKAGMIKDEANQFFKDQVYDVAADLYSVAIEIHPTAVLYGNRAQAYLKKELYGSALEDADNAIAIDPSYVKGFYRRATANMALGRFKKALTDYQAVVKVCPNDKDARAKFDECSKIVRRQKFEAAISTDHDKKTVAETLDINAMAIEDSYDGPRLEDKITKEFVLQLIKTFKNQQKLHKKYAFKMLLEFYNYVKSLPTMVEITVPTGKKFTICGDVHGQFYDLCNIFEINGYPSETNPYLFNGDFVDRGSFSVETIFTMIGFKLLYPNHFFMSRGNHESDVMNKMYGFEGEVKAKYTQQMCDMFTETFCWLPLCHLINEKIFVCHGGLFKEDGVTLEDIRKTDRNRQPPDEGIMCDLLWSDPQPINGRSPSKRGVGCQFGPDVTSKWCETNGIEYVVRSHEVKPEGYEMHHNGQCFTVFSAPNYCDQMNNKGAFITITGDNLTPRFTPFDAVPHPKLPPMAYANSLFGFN
In words: pNPP phosphatase assay with nematode PPH-5. It counts as biochemical, C. elegans. The settings on record: for kcat / fold activation: PPH-5 (C. elegans); for kcat: 60 mM pNPP, in presence of compound; for fold activation: based on kcat compared with PPH-5 basal activity; for activation of PPH-5 phosphatase activity: substances at 50 ng/ml, DMSO control. Here is the method:
The compound library consisting of 10000 compounds (New Chemistry and Discovery Chemistry Collection, ChemDiv) was screened using a chromometric phosphatase assay with para-nitrophenyl phosphate (pNPP) as substrate. Phosphatase activity was determined by the conversion of pNPP to para-nitrophenole and absorption of the product at 410 nm (ε: 15100 cm^−1 M^−1). Assays were performed in 96-well plates in a PerkinElmer EnVision instrument with 50 nM of PPH-5. Reaction volume was 100 μl in a buffer of 40 mM HEPES, pH 7.5, 20 mM KCl, 5 mM MnCl2 and 1 mM DTT. The reaction was started by adding pNPP to a final concentration of 60 mM. The slope of the reaction was determined and deviations of >30% were considered potential hits leading to a collection of 76 initial compounds. […] These 76 compounds were maintained and rescreened individually in a Varian Cary 100 spectrophotometer (Agilent Technologies) in Hellma SUPRASIL precision quarz cells (10-mm path length) and 140 μl of reaction volumes. Finally, five compounds were obtained as reproducible activators and selected for further characterization.
(§1) Phosphatase assays for characterization of PP5 and PPH-5 properties were performed in 40 mM HEPES/KOH, 20 mM KCl, 5 mM MnCl2, 1 mM DTT, pH 7.5 and 60 mM pNPP at 20°C if not indicated otherwise. Phosphatase concentrations ranged from 50 to 500 nM in the assay. If indicated, the CeHsp90/DAF-21 peptide AEEDASRMEEVD was supplemented in the assay at a concentration of 60 μM. […] These concentrations were 70 μM for P5SA-1, 140 μM for P5SA-2, 50 μM for P5SA-3, 100 μM for P5SA-4 and 45 μM for P5SA-5.

A further series in a line: physchem. It counts as physicochemical. The note with it: 20 °C, pH 7.5, aqueous buffer. Here is the method:
as §1

For another series, the target named is T2, PP5 (Rattus norvegicus, UniProt P53042).
T2 construct: His tag (inferred from pET28 vector and HisTrap purification); made in house; host or cells: E. coli BL21-CodonPlus (DE3)-RIL
T2 sequence (P53042 1-499): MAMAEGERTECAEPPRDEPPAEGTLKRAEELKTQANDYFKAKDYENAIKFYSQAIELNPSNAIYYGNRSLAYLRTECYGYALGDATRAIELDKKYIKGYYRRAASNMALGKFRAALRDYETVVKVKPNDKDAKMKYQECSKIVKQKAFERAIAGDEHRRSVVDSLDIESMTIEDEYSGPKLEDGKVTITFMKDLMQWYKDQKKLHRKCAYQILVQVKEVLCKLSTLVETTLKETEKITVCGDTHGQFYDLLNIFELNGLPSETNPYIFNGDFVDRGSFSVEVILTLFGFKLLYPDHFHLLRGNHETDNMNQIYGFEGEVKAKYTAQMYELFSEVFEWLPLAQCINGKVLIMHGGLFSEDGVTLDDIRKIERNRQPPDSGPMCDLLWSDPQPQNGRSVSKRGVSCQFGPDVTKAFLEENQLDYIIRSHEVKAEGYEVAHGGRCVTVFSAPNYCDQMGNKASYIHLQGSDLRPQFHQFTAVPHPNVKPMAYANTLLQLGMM
In words: pNPP phosphatase assay with rat PP5. It counts as biochemical, R. norvegicus. The note with it: PP5 (R. norvegicus). Here is the method:
as §1

Series [1] deals with T3, PPH-5 - CeHsp90/DAF-21 complex (Caenorhabditis elegans, UniProt Q9NES8).
T3 construct: made in house
As to the kind of experiment: Analytical ultracentrifugation of PPH-5/YFP-Hsp90 complex formation. The note with it: peptide 60 μM. It counts as binding, C. elegans. Here is the method: Binding of Hsp90 to PPH-5 was analysed by analytical ultracentrifugation with fluorescence detection as described before. Experiments were performed in a Beckman ProteomeLab XL-A analytical ultracentrifuge (Beckman) equipped with an AU-FDS detector (Aviv Biomedical). Analytical ultracentrifugation (AUC) runs were performed in 40 mM HEPES/KOH, pH 7.5, 20 mM KCl, 1 mM DTT. The concentration of labelled YFP–Hsp90 was 300 nM and 3 μM of PPH-5 were added to form a complex with YFP–Hsp90. Where indicated 60 μM of the C-terminal Hsp90/DAF-21 peptide (AEEDASRMEEVD) was present in the sample. Centrifugation was performed at 20°C and 142000 g for 12 h. Scans were recorded every 90 s. Data analysis was performed using a dc/dt approach according to Stafford. The dc/dt plots were fit to Gaussian functions in order to obtain the s20,w values of the respective species as described previously. P5SAs were added as indicated.

Converted amounts (≈) assume the structure as drawn.

Consider `FC(F)(F)c1c2c(nc3c(-c4ccc(Cl)cc4)cnn13)CCC2` [P5SA-1], for which, at PPH-5, the kcat came to 2.28 ± 0.28 s⁻¹, the fold activation came to 3.7 and the “activation of PPH-5 phosphatase activity” value is recorded as “activate PPH-5”. In addition, the solubility in “physchem” came out at 70 µM (≈ 23.6 µg/mL). The same compound registered a fold activation at PP5 (compound at 100 μM) of 4.1.
In the same order, the values of `O=c1cc2nc(-c3ccc(F)cc3)nc(SCc3ccc(Br)cc3)n2[nH]1` [P5SA-4] are 4.85 ± 0.43 s⁻¹, 7.8, “activate PPH-5”, 100 µM (≈ 43.1 µg/mL) and 3.0.
With `CN1CCc2c(sc(-n3cccc3)c2CNC(=O)NC23CC4CC(CC(C4)C2)C3)C1` [P5SA-3], the fold activation at PPH-5 worked out at 4.0; at PP5 (compound at 30 μM (solubility limited)), 2.9. Besides, the “activation of PPH-5 phosphatase activity” value on PPH-5 is “activate PPH-5”. In the series “physchem”, this compound had a solubility of 50 µM (≈ 21.2 µg/mL).
For the compound “AEEDASRMEEVD [MEEVD peptide, C-terminal Hsp90/DAF-21 peptide from Biomatik, used as control to disrupt the PPH-5–Hsp90 complex]”, the “effect on complex formation between PPH-5 and YFP–Hsp90” value in series [1] (300 nM YFP–Hsp90, 3 μM PPH-5, P5SAs at maximal soluble concentration) is listed as “complex formation is strongly reduced”. Further, in series [1] (complex without substance 8.9 S, YFP–Hsp90 alone 6.8 S), the “sedimentation coefficient s20,w of YFP–Hsp90 with PPH-5 in presence of substance” value is recorded as 7.6 S.

Source of the values: PMC4721540, “Selective activators of protein phosphatase 5 target the auto-inhibitory mechanism” (Bioscience Reports, 2015).
